Test results: US12678475B2, “Compositions and methods for treating and preventing lung disease” (ARIZONA BOARD OF REGENTS ON BEHALF OF THE UNIVERSITY OF …, priority 2016, dated 2026)

Experiments:
[1] = tested on: SP-A deficient mice challenged in the HDM model; test: HDM model in SP-A deficient mice, therapeutic SP-A peptides; assay type: in vivo; conditions: peptide given 24 hrs after the last challenge; for eosinophilia in the lavage compartment: compared to vehicle treated mice (FIG. 3A); for mucin production: compared to vehicle treated mice (FIG. 3B)
Description: FIGS. 3A and 3B show the analysis of inflammation in mice that receive “therapeutic” SP-A peptides in the HDM model. Mice were sensitized and challenged in the HDM model according to common methods. Twenty-four hours after the last challenge, mice received either vehicle, a 20-mer or a 10-mer that encompassed the active site containing 223Q. BAL cellularity (left panel) and mucin production (right panel) were assessed 7 days post challenge to assess the role of SP-A on allergic airways resolution. […] Both 223Q and 223K mice are somewhat protected in the acute phase of this model.

[2] = tested on: WT C57BL/6 mice, HDM model; test: Methacholine-induced airway hyper-responsiveness (AHR) in HDM model; assay type: in vivo; conditions: 25 mg/mouse in 40 ml saline oropharyngeal 24 h after each challenge, 3-5 days post HDM challenge, vs vehicle
Description: Twenty-four hours after each challenge, mice received either scrambled vehicle or a 10-mer SP-A peptide (KEQCVEMYTD (SEQ ID NO: 4)) (arrow) that encompassed the active site containing 223Q (at a physiologic dose of […] delivered in […] of sterile saline) by oropharyngeal instillation. Pulmonary function tests were conducted 3-5 days post HDM challenge to determine if the SP-A peptide could protect from methacholine-induced airway hyper-responsiveness (AHR). Mice that received the SP-A peptide after HDM challenge had attenuated: overall resistance (Rrs) and central airways resistance (Rn) as compared to HDM challenged mice that received vehicle treatment.

[3] = tested on: WT C57BL/6 mice challenged with IL-13; test: Methacholine-induced airway hyper-responsiveness (AHR) in IL-13 model; assay type: in vivo; conditions: IL-13 model (3.9 ug IL-13 daily, 3 days); oropharyngeal 2 h after each challenge; 24 hours post IL-13 challenge; vs vehicle
Description: WT C57BL/6 mice were challenged with 3.9 ug of IL-13 (arrow) once a day for 3 consecutive days via oropharyngeal instillation. […] Pulmonary function tests were conducted 24 hours post IL-13 challenge to determine if the SP-A peptide could protect from methacholine-induced airway hyper-responsiveness (AHR). Mice that received the SP-A peptide after HDM challenge had attenuated: overall resistance (Rrs) and central airways resistance (Rn) as compared to HDM challenged mice that received vehicle treatment.

[4] = tested on: human airway epithelial cells; test: IL-13 exposure of airway epithelial cells from asthmatics at air liquid interface, MUC5AC by RT-PCR; assay type: cell-based
Description: Airway epithelial cells at ALI from two asthmatic subjects exposed to IL-13 alone, and IL-13 plus SP-A2 peptide that include the Gln at position 223 in the lectin domain (2230). Full-length oligomeric SP-A that is homozygous at position 223Q/Q was used as a positive control. After 48 hours incubation, MUCSAC expression was determined by RT-PCR
Experiments were conducted wherein airway epithelial cells from two subjects with asthma not on controller therapy were cultured at air liquid interface for two weeks. In separate conditions the cells were exposed to each peptide at 50 ng/ml for 30 minutes followed by IL-13 at 50 ng/ml and incubated for 48 hours. Cells were placed in Trizol MUCSAC was determined by RT-PCR. […] The 10 AA length is especially useful as a therapeutic agent as its size renders it able to be packaged into an inhaler type of device for delivery to the airways.
Regarding FIG. 8, human bronchial epithelial cells obtained from a well-phenotyped asthmatic were grown at an ALI for two weeks prior to experimentation. For challenge, each of the SP-A test peptides (50 μg/ml) were added to the apical compartment at least 30 minutes prior to IL-13 challenge. Muc5AC was analyzed by RT-PCR from cell lysates and analyzed as a fold over the control samples. Peptide sequences: 20-mer […] (SEQ ID NO: 8), peptide 1 PAGRGKEQCV (SEQ ID NO: 2), peptide 2 EMYTDGQWND (SEQ ID NO: 3), peptide 3 KEQCVEMYTD (SEQ ID NO: 4) FL=full length oligomeric SP-A that is extracted from lavage of alveolar proteinosis individuals.

[5] = tested on: eosinophils; test: In vitro studies with isolated eosinophils; assay type: cell-based
[6] = tested on: WT C57BL/6 mice, house dust mite (HDM) model; test: House dust mite (HDM) model in WT C57BL/6 mice, mucin production and BAL eosinophilia; assay type: in vivo; conditions: WT C57BL/6, HDM days 0, 7, 14; 25 μg/mouse oropharyngeal 24 h after last challenge (FIGS. 5, 6)
Description: Regarding FIG. 5, WT C57BL/6 mice were sensitized and challenged in the house dust mite (HDM) model according to standard methods on days 0, 7, 14 (black arrows). Twenty-four hours after the last challenge, mice received either scrambled vehicle or a 20-mer SP-A peptide (dotted arrow) that encompassed the active site containing 223Q (at a physiologic dose of 25 μg/mouse delivered in 40 μl of sterile saline) by oropharyngeal instillation. Lung histological sections were analyzed for mucin production as assessed by PAS stain/scoring to determine if the SP-A peptide could protect from HDM-induced airway mucin production. […] Peptide sequence: […] (SEQ ID NO: 8).
Regarding FIG. 6, WT C57BL/6 mice were sensitized and challenged in the house dust mite (HDM) model according to standard methods on days 0, 7, 14 as shown in FIG. 5 (black arrows). […] Lung histological sections were analyzed for mucin production as assessed by PAS stain/scoring to determine if the SP-A peptide could protect from HDM-induced airway mucin production. […]
Regarding FIG. 7, WT C57BL/6 mice were sensitized and challenged in the house dust mite (HDM) model according to standard methods on days 0, 7, 14 as shown in FIG. 5 (black arrows). […] Bronchoalveolar lavage samples were analyzed for eosinophilia to determine if the SP-A peptide could protect from HDM-induced airway eosinophilia by decreasing eosinophil viability. […]

[7] = airway epithelial cells from asthmatic subjects with allergic or type 2 asthma

Row | Substance | eosinophilia in the lavage compartment [1] | mucin production [1] | central airways resistance (Rn) [2] | overall resistance (Rrs) [2] | central airways resistance (Rn) [3] | overall resistance (Rrs) [3] | MUCSAC expression (RT-PCR) ([4]; cells from two asthmatic subjects at ALI, peptide 50 ng/ml 30 minutes, then IL-13 50 ng/ml, 48 hours (FIG. 4)) | IL-6 induced by IL-13 [4, 7] | mucin induced by IL-13 [4, 7] | eosinophil apoptosis [5] | mucin production (PAS stain/scoring) [6]
1 | KEQCVEMYTD (listed as Homo sapiens) [SEQ ID NO: 4] | significantly less eosinophilia | less mucin production | attenuated | attenuated | attenuated | attenuated | attenuates | – | – | – | –
2 | SP-A: Surfactant protein-A, a secreted lipoprotein complex; full length oligomeric SP-A extracted from lavage of alveolar proteinosis individuals | – | – | – | – | – | – | – | attenuates | attenuates | directly stimulates eosinophil apoptosis | –
3 | PAGRGKEQCVEMYTDGQWND (listed as Homo sapiens) [SEQ ID NO: 8] | significantly less eosinophilia | less mucin production | – | – | – | – | – | – | – | – | reduce mucin production
